The values below come from ChEMBL document CHEMBL4334471, “Discovery of 1,8-disubstituted-[1,2,3]triazolo[4,5-c]quinoline derivatives as a new class of Hippo signaling pathway inhibitors” (Bioorg Med Chem Lett, 2019).

For experiment [1], the species on record is Mus musculus. The experiment in a line: Inhibition of mouse MAPK2 assessed as residual activity at 10 uM relative to control.
Experiment [2] deals with Dual specificity tyrosine-phosphorylation-regulated kinase 1B (Homo sapiens) (UniProt Q9Y463). The experiment in a line: Inhibition of recombinant human DYRK1B assessed as residual activity at 10 uM using RRRFRPASPLRGPP as substrate at 40 mins in presence of [gamma-33ATP] by scintillation counting based radiometry assay relative to control.
Experiment [3] is filed under the species Homo sapiens. The experiment in a line: Inhibition of recombinant human Ros V2262A mutant (1883 to end residues) assessed as residual activity at 10 uM using KKKSPGEYVNIEFG as substrate incubated for 40 mins in presence of [gamma33P]ATP by scintillation counting based radiometry assay relative to control.
For experiment [4], the target named is Serine/threonine-protein kinase WNK3 (Homo sapiens) (UniProt Q9BYP7). The experiment in a line: Inhibition of recombinant human WNK3 (1 to 434 residues) assessed as residual activity at 10 uM using myelin basic protein as substrate incubated for 40 mins in presence of [gamma33P]ATP by scintillation counting based radiometry assay relative to control.
Experiment [5] addresses Homeodomain-interacting protein kinase 4 (Homo sapiens) (UniProt Q8NE63). Nature of the experiment: Inhibition of human HIPK4 assessed as residual activity at 10 uM using RRRFRPASPLRGPPK as substrate after 40 mins by [gamma-33ATP] radiometric assay relative to control.
For experiment [6], the target named is Cyclin-dependent kinase-like 1 (Homo sapiens) (UniProt Q00532). The experiment in a line: Inhibition of recombinant full length human CDKL1 assessed as residual activity at 10 uM using RRRFRPASPLRGP as substrate incubated for 120 mins in presence of [gamma-33ATP] by scintillation counting based radiometry assay relative to control.
Sequence of Cyclin-dependent kinase-like 1 (Homo sapiens) (Q00532 whole entry): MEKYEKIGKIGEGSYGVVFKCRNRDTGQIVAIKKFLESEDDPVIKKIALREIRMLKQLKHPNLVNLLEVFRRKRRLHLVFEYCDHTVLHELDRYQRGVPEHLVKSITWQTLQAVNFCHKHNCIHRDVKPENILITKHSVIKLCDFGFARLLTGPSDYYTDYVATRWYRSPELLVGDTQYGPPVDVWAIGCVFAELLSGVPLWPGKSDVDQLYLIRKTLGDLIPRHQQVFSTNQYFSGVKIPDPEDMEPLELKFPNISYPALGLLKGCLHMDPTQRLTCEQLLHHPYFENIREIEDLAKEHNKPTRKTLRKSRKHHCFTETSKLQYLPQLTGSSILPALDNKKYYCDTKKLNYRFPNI
The test system of experiment [7] is Protein kinase C eta type (Homo sapiens), P24723 [UNDEFINED MUTATION]. Nature of the experiment: Inhibition of recombinant human PKCeta V108L/G109R/L392Q mutant (2 to end residues) assessed as residual activity at 10 uM using ERMRPRKRQGSVRRRV as substrate incubated for 40 mins in presence of [gamma33P]ATP by scintillation counting based radiometry assay relative to control.
Sequence of Protein kinase C eta type (Homo sapiens), P24723 [UNDEFINED MUTATION] (P24723 whole entry, looked up, stated change not applied): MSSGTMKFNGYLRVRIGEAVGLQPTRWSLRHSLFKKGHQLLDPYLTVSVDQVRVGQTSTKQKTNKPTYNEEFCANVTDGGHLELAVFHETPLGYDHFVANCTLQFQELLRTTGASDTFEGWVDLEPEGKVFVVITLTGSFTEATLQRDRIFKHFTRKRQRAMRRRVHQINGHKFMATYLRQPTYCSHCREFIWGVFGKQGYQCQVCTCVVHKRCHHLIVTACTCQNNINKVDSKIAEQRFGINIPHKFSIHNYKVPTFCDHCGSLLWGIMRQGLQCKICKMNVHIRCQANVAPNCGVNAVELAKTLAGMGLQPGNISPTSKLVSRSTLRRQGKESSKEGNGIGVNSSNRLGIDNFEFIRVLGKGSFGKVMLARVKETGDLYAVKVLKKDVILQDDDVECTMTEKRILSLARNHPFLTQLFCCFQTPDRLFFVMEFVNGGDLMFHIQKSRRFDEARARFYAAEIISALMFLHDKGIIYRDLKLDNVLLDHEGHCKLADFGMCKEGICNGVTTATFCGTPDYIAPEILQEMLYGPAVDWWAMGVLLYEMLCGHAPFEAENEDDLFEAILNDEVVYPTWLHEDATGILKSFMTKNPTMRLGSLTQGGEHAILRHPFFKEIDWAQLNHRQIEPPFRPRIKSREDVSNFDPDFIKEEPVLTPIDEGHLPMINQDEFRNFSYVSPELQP

Experiment [8] addresses Mast/stem cell growth factor receptor Kit (Homo sapiens) (UniProt P10721). Nature of the experiment: Inhibition of recombinant human C-Kit (544 to end residues) using poly(Glu, Tyr) 4:1 as substrate assessed as residual activity at 10 uM in presence of [gamma-33ATP] by scintillation counting based radiometry assay relative to control.
The target in experiment [9] is Tyrosine-protein kinase Blk (Mus musculus) (UniProt P16277). Nature of the experiment: Inhibition of recombinant full length mouse BLK assessed as residual activity at 10 uM using poly(Glu, Tyr) 4:1 as substrate incubated for 40 mins in presence of [gamma-33ATP] by scintillation counting based radiometry assay relative to control.
In experiment [10] the target is Insulin receptor (Homo sapiens) (UniProt P06213). The experiment in a line: Inhibition of human IR (1005 to 1310 residues) assessed as residual activity at 10 uM using KKSRGDYMTMQIG as substrate after 40 mins by [gamma-33ATP] radiometric assay relative to control.
The test system of experiment [11] is PI3-kinase p110-alpha/p85-alpha (Homo sapiens), P27986+P42336 [H1047R]. Nature of the experiment: Inhibition of recombinant full-length human PI3K p110/p85 H1047R mutant assessed as residual activity at 10 uM using phosphatidylinositol-4, 5-bisphosphate as substrate incubated for 40 mins in presence of [gamma33P]ATP by scintillation counting based radiometry assay relative to control.

Experiment [12] concerns the target Ribosomal protein S6 kinase alpha-3 (Homo sapiens) (UniProt P51812). The experiment in a line: Inhibition of recombinant human Rsk2 (2 to end residues) assessed as residual activity at 10 uM using KKKNRTLSVA as substrate incubated for 40 mins in presence of [gamma33P]ATP by scintillation counting based radiometry assay relative to control.
The target of experiment [13] is BMP-2-inducible protein kinase (Homo sapiens) (UniProt Q9NSY1). Nature of the experiment: Inhibition of recombinant human BIKe assessed as residual activity at 10 uM using peptide as substrate incubated for 120 mins in presence of [gamma-33ATP] by scintillation counting based radiometry assay relative to control.
The target in experiment [14] is Receptor-interacting serine/threonine-protein kinase 1 (Homo sapiens) (UniProt Q13546). The experiment in a line: Inhibition of recombinant human RIPK1 (8 to 322 residues) assessed as residual activity at 10 uM using myelin basic protein as substrate incubated for 40 mins in presence of [gamma33P]ATP by scintillation counting based radiometry assay relative to control.
Sequence of Receptor-interacting serine/threonine-protein kinase 1 (Homo sapiens) (Q13546 whole entry, the tested form may be a part): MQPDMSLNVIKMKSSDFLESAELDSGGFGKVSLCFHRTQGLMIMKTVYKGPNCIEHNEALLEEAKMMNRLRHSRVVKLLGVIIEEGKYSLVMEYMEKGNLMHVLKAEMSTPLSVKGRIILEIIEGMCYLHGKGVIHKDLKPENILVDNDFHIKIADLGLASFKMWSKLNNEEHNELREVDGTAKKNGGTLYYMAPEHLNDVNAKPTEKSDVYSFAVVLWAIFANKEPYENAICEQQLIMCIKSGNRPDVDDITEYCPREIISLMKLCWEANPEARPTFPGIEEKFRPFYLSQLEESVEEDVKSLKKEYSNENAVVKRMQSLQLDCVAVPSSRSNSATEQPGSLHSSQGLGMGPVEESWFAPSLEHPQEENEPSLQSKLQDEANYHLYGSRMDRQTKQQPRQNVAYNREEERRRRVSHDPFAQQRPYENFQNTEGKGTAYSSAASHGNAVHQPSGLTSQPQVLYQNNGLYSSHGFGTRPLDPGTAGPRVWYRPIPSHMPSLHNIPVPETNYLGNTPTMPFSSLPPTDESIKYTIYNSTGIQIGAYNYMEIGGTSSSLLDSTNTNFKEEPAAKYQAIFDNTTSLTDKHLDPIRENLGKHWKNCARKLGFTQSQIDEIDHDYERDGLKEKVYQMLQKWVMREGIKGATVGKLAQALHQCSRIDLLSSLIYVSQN

Experiment [15] has as its target Serine/threonine-protein kinase PAK 1 (Homo sapiens) (UniProt Q13153). Nature of the experiment: Inhibition of recombinant human PAK1 (150 to end residues) assessed as residual activity at 10 uM using RRRLSFAEPG as substrate measured after 40 mins in presence of [gamma33P]ATP by scintillation counting based radiometry assay relative to control.
Experiment [16] addresses Fibroblast growth factor receptor 2 (Homo sapiens) (UniProt P21802). Nature of the experiment: Inhibition of recombinant human FGFR2 (456 to 770 residues) assessed as residual activity at 10 uM using poly(Glu, Tyr) 4:1 as substrate at 40 mins in presence of [gamma-33ATP] by scintillation counting based radiometry assay relative to control.
The target of experiment [17] is Dual specificity protein kinase CLK2 (Homo sapiens) (UniProt P49760). Nature of the experiment: Inhibition of recombinant human CLK2 (138 to end residues) assessed as residual activity at 10 uM using YRRAAVPPSPSLSRHSSPHQS(p)EDEEE as substrate incubated 40 mins in presence of [gamma-33ATP] by scintillation counting based radiometry assay relative to control.
Sequence of Dual specificity protein kinase CLK2 (Homo sapiens) (P49760 whole entry, looked up): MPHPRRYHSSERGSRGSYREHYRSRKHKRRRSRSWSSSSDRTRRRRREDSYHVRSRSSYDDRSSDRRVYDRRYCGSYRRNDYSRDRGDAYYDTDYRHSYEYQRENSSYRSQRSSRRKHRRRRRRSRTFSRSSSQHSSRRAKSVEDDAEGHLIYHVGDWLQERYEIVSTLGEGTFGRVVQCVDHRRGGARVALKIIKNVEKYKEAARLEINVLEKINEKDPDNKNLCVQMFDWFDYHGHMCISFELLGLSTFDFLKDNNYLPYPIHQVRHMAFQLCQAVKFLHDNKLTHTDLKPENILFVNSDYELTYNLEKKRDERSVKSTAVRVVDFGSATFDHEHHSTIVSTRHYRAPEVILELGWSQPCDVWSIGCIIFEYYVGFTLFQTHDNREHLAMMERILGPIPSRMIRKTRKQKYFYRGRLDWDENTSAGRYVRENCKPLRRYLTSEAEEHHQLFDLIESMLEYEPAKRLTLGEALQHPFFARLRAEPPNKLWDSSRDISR
The test system of experiment [18] is eIF-2-alpha kinase GCN2 (Homo sapiens), Q9P2K8 [E556G]. Nature of the experiment: Inhibition of recombinant full length human GCN2 E556G mutant assessed as residual activity at 10 uM using RSRSRSRSRSRSR as substrate at 40 mins in presence of [gamma-33ATP] by scintillation counting based radiometry assay relative to control.
The subject of experiment [19] is SNF-related serine/threonine-protein kinase (Homo sapiens), Q9NRH2 [UNDEFINED MUTATION]. Nature of the experiment: Inhibition of human SNRK E97G/P116A mutant (65 to 409 residues) assessed as residual activity at 10 uM using KKLRRTLSFAEPG as substrate incubated for 40 mins in presence of [gamma33P]ATP by scintillation counting based radiometry assay relative to control.

Experiment [20] concerns the target Rhodopsin kinase GRK7 (Homo sapiens) (UniProt Q8WTQ7). The experiment in a line: Inhibition of recombinant full length human GRK7 assessed as residual activity at 10 uM using casein as substrate at 40 mins in presence of [gamma-33ATP] by scintillation counting based radiometry assay relative to control.
Experiment [21] concerns the target Tyrosine-protein kinase JAK1 (Homo sapiens) (UniProt P23458). The experiment in a line: Inhibition of human JAK1 (866 to end residues) assessed as residual activity at 10 uM using GEEPLYWSFPAKKK as substrate after 40 mins by [gamma-33ATP] radiometric assay relative to control.

Sequence of Tyrosine-protein kinase JAK1 (Homo sapiens) (P23458 whole entry): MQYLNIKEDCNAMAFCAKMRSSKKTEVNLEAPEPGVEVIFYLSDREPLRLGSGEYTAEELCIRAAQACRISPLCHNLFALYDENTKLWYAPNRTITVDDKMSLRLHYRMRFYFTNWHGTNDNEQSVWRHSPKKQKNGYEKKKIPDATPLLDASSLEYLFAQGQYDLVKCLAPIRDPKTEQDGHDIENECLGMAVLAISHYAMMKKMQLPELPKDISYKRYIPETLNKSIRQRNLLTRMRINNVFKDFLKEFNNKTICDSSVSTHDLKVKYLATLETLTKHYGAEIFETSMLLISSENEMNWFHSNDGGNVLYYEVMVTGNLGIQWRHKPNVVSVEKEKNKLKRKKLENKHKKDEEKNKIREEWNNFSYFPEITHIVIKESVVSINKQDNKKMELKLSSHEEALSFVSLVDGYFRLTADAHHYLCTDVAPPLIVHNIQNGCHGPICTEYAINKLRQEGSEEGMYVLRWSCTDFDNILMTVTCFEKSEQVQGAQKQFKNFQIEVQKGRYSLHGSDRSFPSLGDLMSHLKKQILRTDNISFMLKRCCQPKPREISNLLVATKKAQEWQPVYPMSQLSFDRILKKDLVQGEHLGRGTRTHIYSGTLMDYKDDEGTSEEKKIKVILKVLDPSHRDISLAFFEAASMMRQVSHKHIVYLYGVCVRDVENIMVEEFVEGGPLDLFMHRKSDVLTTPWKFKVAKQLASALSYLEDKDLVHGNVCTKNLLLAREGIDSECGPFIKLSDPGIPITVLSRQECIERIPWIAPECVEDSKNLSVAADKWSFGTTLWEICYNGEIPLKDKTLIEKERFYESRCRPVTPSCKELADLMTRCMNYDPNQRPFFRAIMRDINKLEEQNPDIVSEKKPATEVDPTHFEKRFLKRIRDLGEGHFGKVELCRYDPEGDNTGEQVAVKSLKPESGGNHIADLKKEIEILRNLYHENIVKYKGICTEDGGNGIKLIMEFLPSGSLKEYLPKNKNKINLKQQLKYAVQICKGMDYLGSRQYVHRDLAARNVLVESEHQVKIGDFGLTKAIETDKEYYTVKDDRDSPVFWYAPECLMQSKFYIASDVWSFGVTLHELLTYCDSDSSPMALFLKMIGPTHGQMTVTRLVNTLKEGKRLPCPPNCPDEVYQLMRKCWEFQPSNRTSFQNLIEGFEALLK
Sequence of Serine/threonine-protein kinase PAK 1 (Homo sapiens) (Q13153 whole entry, the tested form may be a part): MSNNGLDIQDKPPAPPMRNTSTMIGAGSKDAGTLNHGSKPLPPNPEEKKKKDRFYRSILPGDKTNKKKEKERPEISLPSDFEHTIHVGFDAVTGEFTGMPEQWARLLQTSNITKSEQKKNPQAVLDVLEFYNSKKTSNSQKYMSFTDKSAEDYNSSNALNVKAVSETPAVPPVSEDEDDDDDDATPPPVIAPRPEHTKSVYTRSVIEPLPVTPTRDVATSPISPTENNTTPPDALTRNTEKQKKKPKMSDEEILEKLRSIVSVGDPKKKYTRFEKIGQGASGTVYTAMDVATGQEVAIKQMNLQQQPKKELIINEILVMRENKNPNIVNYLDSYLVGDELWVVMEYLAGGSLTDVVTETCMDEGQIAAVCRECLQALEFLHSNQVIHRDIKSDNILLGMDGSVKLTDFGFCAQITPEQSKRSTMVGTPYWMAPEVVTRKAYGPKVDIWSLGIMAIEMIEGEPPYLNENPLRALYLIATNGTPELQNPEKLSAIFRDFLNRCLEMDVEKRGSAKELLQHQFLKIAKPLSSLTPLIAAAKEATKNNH
Sequence of Mast/stem cell growth factor receptor Kit (Homo sapiens) (P10721 whole entry): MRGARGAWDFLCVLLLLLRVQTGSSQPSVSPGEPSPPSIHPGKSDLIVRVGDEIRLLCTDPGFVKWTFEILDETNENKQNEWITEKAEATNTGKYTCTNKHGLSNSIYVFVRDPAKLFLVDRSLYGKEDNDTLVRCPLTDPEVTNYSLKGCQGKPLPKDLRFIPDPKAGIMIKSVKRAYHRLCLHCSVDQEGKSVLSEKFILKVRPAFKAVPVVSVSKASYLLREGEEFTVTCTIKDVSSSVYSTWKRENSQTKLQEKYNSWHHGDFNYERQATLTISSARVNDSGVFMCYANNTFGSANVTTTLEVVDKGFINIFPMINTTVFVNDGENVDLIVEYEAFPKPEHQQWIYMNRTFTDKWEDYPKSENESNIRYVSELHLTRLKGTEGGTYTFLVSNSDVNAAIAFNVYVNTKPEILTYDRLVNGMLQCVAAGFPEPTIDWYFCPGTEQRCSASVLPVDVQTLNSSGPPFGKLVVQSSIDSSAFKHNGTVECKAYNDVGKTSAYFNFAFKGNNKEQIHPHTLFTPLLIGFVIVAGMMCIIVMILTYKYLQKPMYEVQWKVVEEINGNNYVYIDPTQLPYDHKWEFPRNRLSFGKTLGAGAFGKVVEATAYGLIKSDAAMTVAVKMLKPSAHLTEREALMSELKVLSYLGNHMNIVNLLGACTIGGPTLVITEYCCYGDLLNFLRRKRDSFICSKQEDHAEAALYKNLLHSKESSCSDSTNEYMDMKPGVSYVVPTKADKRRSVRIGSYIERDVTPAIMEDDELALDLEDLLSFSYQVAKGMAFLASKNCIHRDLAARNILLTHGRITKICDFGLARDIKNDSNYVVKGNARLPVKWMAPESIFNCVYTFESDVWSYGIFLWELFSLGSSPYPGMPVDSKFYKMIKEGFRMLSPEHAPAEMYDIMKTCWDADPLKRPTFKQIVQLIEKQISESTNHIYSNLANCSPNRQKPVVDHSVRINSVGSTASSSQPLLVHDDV

`C[C@@H](c1ccccc1)n1nnc2cnc3ccc(-c4cnc5[nH]ccc5c4)cc3c21`: the Activity was 100% in [1]; 83% in experiment [2]; 102% in experiment [3]; 99% in experiment [4]; 57% in [5]; 79% in experiment [6]. Also, the Activity in [7] came to 82%; in experiment [8], 103%; in experiment [9], 12%; in experiment [10], 64%; in [11] it was 16%; in experiment [12], 53%. Further, the Activity in experiment [13] amounted to 54%; in [14] it was 98%; in experiment [15] it was 92%; in experiment [16] it was 32%; in experiment [17] it was 30%; in experiment [18] it was 93%. Moreover, the Activity was 76% in experiment [19], 90% in experiment [20] and 47% in experiment [21].
